According to ChEMBL document CHEMBL5050855, “Mettl16 inhibitors and uses thereof” (2021):
Calls of active or inactive are those of the source. The calls are words filed in the database; no cut-off is given here.

Legend:
HEL = experiment: Antiproliferative activity against human HEL cells after 72 hrs by MTT assay; type: functional, cell-based
Kasumi 1 [1] = experiment: Antiproliferative activity against human Kasumi 1 cells after 72 hrs by MTT assay; type: functional, cell-based; conditions: Kasumi 1, 72 h
[2] = Antiproliferative activity against human MA9.3ITD cells after 72 hrs by MTT assay; type: functional, cell-based
U-937 [3] = experiment: Antiproliferative activity against human U-937 cells after 72 hrs by MTT assay; type: functional, cell-based; conditions: U-937, 72 h
[4] = Antiproliferative activity against human MA9.3RAS cells after 72 hrs by MTT assay; type: functional, cell-based
HL-60 = experiment: Antiproliferative activity against human HL-60 cells after 72 hrs by MTT assay; type: functional, cell-based; conditions: HL-60, 72 h
MONO-MAC-6 = experiment: Antiproliferative activity against human MONO-MAC-6 cells after 72 hrs by MTT assay; type: functional, cell-based; conditions: MONO-MAC-6, 72 h
RS4-11 = experiment: Antiproliferative activity against human RS4-11 cells after 72 hrs by MTT assay; type: functional, cell-based; conditions: RS4-11, 72 h
SUP-B15 = experiment: Antiproliferative activity against human SUP-B15 cells after 72 hrs by MTT assay; type: functional, cell-based; conditions: SUP-B15, 72 h
DG-75 = experiment: Antiproliferative activity against human DG-75 cells after 72 hrs by MTT assay; type: functional, cell-based; conditions: DG-75, 72 h
CA46 = experiment: Antiproliferative activity against human CA46 cells after 72 hrs by MTT assay; type: functional, cell-based; conditions: CA46, 72 h
HeLa = experiment: Antiproliferative activity against human HeLa cells after 72 hrs by MTT assay; type: functional, cell-based
COLO357 = experiment: Antiproliferative activity against human COLO357 cells after 72 hrs by MTT assay; type: functional, cell-based; conditions: COLO357, 72 h
U-87 MG = experiment: Antiproliferative activity against human U-87 MG cells after 72 hrs by MTT assay; type: functional, cell-based, U-87MG ATCC
LN-229 = experiment: Antiproliferative activity against human LN-229 cells after 72 hrs by MTT assay; type: functional, cell-based; conditions: LN-229, 72 h
A 172 = experiment: Antiproliferative activity against human A-172 cells after 72 hrs by MTT assay; type: functional, cell-based; conditions: A 172, 72 h
T98G = experiment: Antiproliferative activity against human T98G cells after 72 hrs by MTT assay; type: functional, cell-based
U-937 [5] = experiment: Binding affinity towards METTL16 in human U-937 cells at 0.1 to 500 uM and measured by drug affinity responsive target stability (DARTS) assay; type: cell-based; conditions: dose 0.1-500 µM
U-937 [6] = experiment: Binding affinity towards METTL16 in human U-937 cells at 0.1 to 500 uM and measured by cellular thermal shift assay (CETSA); type: cell-based; conditions: dose 0.1-500 µM
U-937 [7] = experiment: Inhibition of METTL16 in human U-937 cells at 10 to 20 nM assessed as increase in global m6A levels measured after 48 hrs; type: cell-based; conditions: dose 10-20 nM
Kasumi 1 [8] = experiment: Inhibition of METTL16 in human Kasumi 1 cells at 10 to 20 nM assessed as increase in global m6A levels measured after 48 hrs; type: cell-based; conditions: dose 10-20 nM
MA9.3RAS = experiment: Inhibition of METTL16 in human MA9.3RAS cells at 10 to 20 nM assessed as increase in global m6A levels measured after 48 hrs; type: cell-based; conditions: dose 10-20 nM
NOMO-1 = experiment: Antiproliferative activity against human NOMO-1 cells after 72 hrs by MTT assay; type: functional, cell-based; conditions: NOMO-1, 72 h

Which IC50 (HEL) does the source give for `Nc1ccc(Cn2ccc3c4c(N)nc(N)nc4ccc32)cc1` here?
Its IC50 is 15.4 nM.

What about the IC50 (Kasumi 1 [1]) of the same compound?
Its IC50 is 13 nM.

And the IC50 [2]?
The IC50 was 15.7 nM.

And the IC50 (U-937 [3])?
The IC50 was 9.63 nM.

And the IC50 [4]?
Its IC50 is 16.1 nM.

And the IC50 (HL-60)?
Its IC50 is 32.6 nM.

And the IC50 (MONO-MAC-6)?
Its IC50 is 28 nM.

And the IC50 (RS4-11)?
The IC50 was 37 nM.

What about the IC50 (SUP-B15) of the same compound?
The IC50 was 13 nM.

And the IC50 (DG-75)?
Its IC50 is 44 nM.

And the IC50 (CA46)?
The IC50 was 109 nM.

And the IC50 (HeLa)?
Its IC50 is 64 nM.

And the IC50 (COLO357)?
Its IC50 is 1030 nM.

What about the IC50 (U-87 MG) of the same compound?
Its IC50 is 20900 nM.

What about the IC50 (LN-229) of the same compound?
The IC50 was 558 nM.

What about the IC50 (A 172) of the same compound?
Its IC50 is 682 nM.

And the IC50 (T98G)?
Its IC50 is 10800 nM.

And the Activity (U-937 [5])?
Its Activity is “Active”.

And the Activity (U-937 [6])?
The Activity was “Active”.

What about the inhibition (U-937 [7]) of the same compound?
The inhibition was “Active”.

What about the inhibition (Kasumi 1 [8]) of the same compound?
Its inhibition is “Active”.

And the inhibition (MA9.3RAS)?
Its inhibition is “Active”.

With `Nc1ccc(Cn2ccc3c4c(N)nc(N)nc4ccc32)c(CO)c1` as the compound, how does the IC50 [2] read?
Its IC50 is 47 nM.

What about the IC50 (U-937 [3]) of the same compound?
Its IC50 is 23 nM.

And the IC50 [4]?
Its IC50 is 45 nM.

For `Nc1ccc(CO)c(Cn2ccc3c4c(N)nc(N)nc4ccc32)c1`, which IC50 [2] is on record?
The IC50 was 54 nM.

What about the IC50 (U-937 [3]) of the same compound?
Its IC50 is 36 nM.

And the IC50 [4]?
The IC50 was 70 nM.

What about the IC50 (NOMO-1) of the same compound?
The IC50 was 55 nM.
